The record followed here is US12030876B2, “Aryl hydrocarbon receptor (AHR) agonists and uses thereof” (Ikena Oncology, Inc., priority 2019, dated 2024).

Where only a bound is given, the exact number is not on record here.

The first test deals with T1, AHR (Homo sapiens, UniProt P35869).
T1 construct: endogenous in cells; host or cells: HepG2 (human), transfected with a DRE-luciferase reporter only
T1 sequence (P35869 11-848): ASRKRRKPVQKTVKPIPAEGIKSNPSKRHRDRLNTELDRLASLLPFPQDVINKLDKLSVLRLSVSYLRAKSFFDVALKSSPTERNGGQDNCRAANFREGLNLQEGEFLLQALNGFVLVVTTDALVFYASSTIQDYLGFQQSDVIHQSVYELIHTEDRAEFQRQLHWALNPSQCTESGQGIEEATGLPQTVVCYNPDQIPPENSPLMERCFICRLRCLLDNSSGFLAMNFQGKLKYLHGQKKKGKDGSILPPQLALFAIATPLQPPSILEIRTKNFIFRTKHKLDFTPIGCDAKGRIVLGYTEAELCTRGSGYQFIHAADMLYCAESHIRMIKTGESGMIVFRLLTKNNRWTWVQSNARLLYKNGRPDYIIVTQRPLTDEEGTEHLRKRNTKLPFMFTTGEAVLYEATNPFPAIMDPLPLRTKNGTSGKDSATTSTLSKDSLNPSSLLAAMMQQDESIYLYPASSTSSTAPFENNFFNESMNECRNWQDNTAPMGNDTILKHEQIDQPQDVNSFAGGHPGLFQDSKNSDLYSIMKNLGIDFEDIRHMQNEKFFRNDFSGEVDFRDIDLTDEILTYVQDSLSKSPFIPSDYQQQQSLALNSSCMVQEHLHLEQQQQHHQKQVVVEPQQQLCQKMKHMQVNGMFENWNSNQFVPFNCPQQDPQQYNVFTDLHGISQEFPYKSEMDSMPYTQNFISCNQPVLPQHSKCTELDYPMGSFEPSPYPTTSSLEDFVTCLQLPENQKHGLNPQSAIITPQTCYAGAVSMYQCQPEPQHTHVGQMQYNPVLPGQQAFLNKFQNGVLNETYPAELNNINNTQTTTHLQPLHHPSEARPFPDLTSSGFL
As to the kind of experiment: DRE-Luciferase Reporter Assay, HepG2 (agonist). The note with it: DRE-Luc HepG2 - Agonist: Average EC50 (μM), HepG2, Table 2. The test is classed as cell-based. On the procedure: DRE-Luciferase Reporter Assay
AHR binds to Dioxin Responsive Elements (DRE) upstream of genes that it activates. One measure of AHR activity is activation of a reporter gene, such as luciferase, downstream of one or multiple DRE elements. Luciferase activity reflects activation and inhibition of AHR in the cells expressing this reporter.
Murine Hepa1-6 or Hepa-1c1c7 or other murine cell line with a DRE-luciferase reporter either stably or transiently transfected are plated in media in plates (96-well, 384-well or other plates) and incubated overnight at 37 C in a CO2 incubator. Likewise, human HepG2 or other human cell line with a DRE-luciferase reporter either stably or transiently transfected are plated in media in plates (96-well, 384-well or other plates) and incubated overnight at 37 C in a CO2 incubator.
The next day, an AHR agonist compound is added. Cells are incubated for 6, 16 or 24 hours or another time point and then lysed for determination of luciferase activity as a read-out of the AHR activation. Luciferase can be measured with a commercial kit such as the Promega Luciferase kit or any kit or reagents that provide the luciferin substrate for measuring luciferase activity. The level of luciferase with only activating ligand (e.g. such as TCDD, kynurenine, ITE (2-(1H-indole-3-ylcarbonyl)-4-thiazolecarboxylic methyl ester), VAF347, BNF (beta-naphthoflavone), ICZ (6-formylindolo(3,2-b) carbazole or other AHR ligands) added is the maximum signal while the luciferase with no ligand is the minimum signal. EC50s can be determined as the concentration which activates half of the maximum luciferase activity.
Background: In a reporter assay the amount or activity of a reporter protein is the signal.
In general, EC50 refers to the concentration at which the effect is half-maximal. As to `c1ccc(Nc2nc(-c3ccccc3)cs2)cc1` [Compound P-14], the EC50 was > 1 µM.

Staying with this test, now noted: DRE-Luc HepG2 - Agonist: Average EC50 (μM), HepG2, Table 3.
As for `O=C(O)c1cccc(Nc2nc(-c3cccc([N+](=O)[O-])c3)cs2)c1` [I-81], the EC50 was > 1 µM.

The test is the same for the next values; noted with them: HepG2, Table 2; read-out: DRE-Luc HepG2 - Agonist: Average EC50.
As to `C[N+](C)(CCO)CCOCCN(c1cccc(C(F)(F)F)c1)c1nc(-c2cccc(Cl)c2)cs1` [I-45], the EC50 was 0.1 to 1 µM. Same read-out and setting: the result for `C[N+](C)(CCOCCN(c1cccc(C(F)(F)F)c1)c1nc(-c2cccc(Cl)c2)cs1)CC(=O)O` [I-51] reads > 1 µM; that for `C[N+](C)(CCO)CCOCCN(c1ccc(C(F)(F)F)cc1)c1nc(-c2cccc(Cl)c2)cs1` [I-52], > 1 µM; that for `FC(F)(F)c1ccc(Nc2ncc(-c3ccccc3Cl)o2)cc1` [I-62], 0.1 to 1 µM. Consider `FC(F)(F)c1ccc(Nc2nc(-c3cccc(Cl)c3)co2)cc1` [I-63], for which the EC50 was 0.1 to 1 µM. Still for that read-out and setting: the result for `FC(F)(F)c1ccc(Nc2nnc(-c3cccc(Cl)c3)o2)cc1` [I-64] reads > 1 µM. Regarding `FC(F)(F)c1ccc(Nc2nnc(-c3cccc(Cl)c3)[nH]2)cc1` [I-65], the EC50 was > 1 µM. `Oc1ccc(-c2cnc(Nc3ccc(C(F)(F)F)cc3)o2)cc1` [I-67]: the EC50 was > 1 µM.

`Oc1cccc(-c2cnc(Nc3ccc(C(F)(F)F)cc3)o2)c1` [I-68]: the EC50 was > 1 µM. Same read-out and setting: the result for `CN(C)CCOc1cccc(-c2cnc(Nc3ccc(C(F)(F)F)cc3)o2)c1` [I-69] reads > 1 µM; that for `Cn1cc(-c2cccc(Cl)c2)nc1Nc1cccc(C(F)(F)F)c1` [I-70], > 1 µM.

Regarding `Cn1c(-c2cccc(Cl)c2)cnc1Nc1cccc(C(F)(F)F)c1` [I-71], the EC50 is > 1 µM. Same read-out and setting: the result for `C[N+](C)(C)CCOc1cccc(-c2cnc(Nc3ccc(C(F)(F)F)cc3)o2)c1` [I-72] reads > 1 µM; that for `C[N+](C)(C)CCOc1ccc(-c2cnc(Nc3ccc(C(F)(F)F)cc3)o2)cc1` [I-73], > 1 µM; that for `CN(C)CCOc1ccc(-c2cnc(Nc3ccc(C(F)(F)F)cc3)o2)cc1` [I-74], > 1 µM. On the same count and under the same terms, the result for `Oc1ccccc1-c1cnc(Nc2ccc(C(F)(F)F)cc2)o1` [I-75] reads > 1 µM.

The same test, now with this note: HepG2, Table 3; read-out: DRE-Luc HepG2 - Agonist: Average EC50.
On to `O=C(O)c1cc(-c2csc(Nc3cccc(C(F)(F)F)c3)n2)cc([N+](=O)[O-])c1` [I-78], for which the concentration for a half-maximal effect (EC50) is > 1 µM. Same read-out and setting: the result for `O=C(O)c1cncc(-c2csc(Nc3cccc(C(F)(F)F)c3)n2)c1` [I-79] reads > 1 µM; that for `N#Cc1cc(Cl)cc(-c2csc(Nc3cccc(C(F)(F)F)c3)n2)c1` [I-80], 0.01 to 0.1 µM; that for `NC(=O)c1cccc(Nc2nc(-c3cccc([N+](=O)[O-])c3)cs2)c1` [I-82], > 1 µM. On the same count and under the same terms, the result for `O=[N+]([O-])c1cccc(-c2csc(Nc3ccc(C(F)(F)F)cc3)n2)c1` [I-84] reads 0.01 to 0.1 µM. On to `O=S(=O)(O)c1cccc(-c2csc(Nc3cccc(C(F)(F)F)c3)n2)c1` [I-85], for which the EC50 is > 1 µM. On the same count and under the same terms, the result for `CN(CCNC(=O)N(c1cccc(C(F)(F)F)c1)c1nc(-c2cccc(Cl)c2)cs1)CC(=O)O` [I-86] reads < 0.01 µM; that for `C[N+]1(C)CCN(C(=O)c2cccc(Nc3nc(-c4cccc([N+](=O)[O-])c4)cs3)c2)CC1` [I-88], > 1 µM; that for `[O-][n+]1ccccc1-c1csc(Nc2cccc(C(F)(F)F)c2)n1` [I-94], > 1 µM. Same read-out and setting: the result for `N#Cc1cc(C(=O)O)cc(-c2csc(Nc3cccc(C(F)(F)F)c3)n2)c1` [I-95] reads > 1 µM; that for `O=[N+]([O-])c1cccc(-c2csc(Nc3cncc(C(F)(F)F)c3)n2)c1` [I-96], < 0.01 µM. Same read-out and setting: the result for `C[n+]1cccc(-c2csc(N(C(=O)NCCC[N+](C)(C)C)c3cccc(C(F)(F)F)c3)n2)c1` [I-98] reads 0.1 to 1 µM; that for `NC(=O)c1cc(-c2csc(Nc3cccc(C(F)(F)F)c3)n2)c[n+]([O-])c1` [I-99], > 1 µM. With `NC(=O)c1cc(-c2csc(Nc3cccc(C(F)(F)F)c3)n2)cc([N+](=O)[O-])c1` [I-101], the EC50 was > 1 µM.

For the compound `COC(=O)c1cncc(-c2csc(Nc3cccc(C(F)(F)F)c3)n2)c1` [I-102], the EC50 was > 1 µM. On the same count and under the same terms, the result for `O=[N+]([O-])c1cccc(-c2csc(Nc3cccc(S(=O)(=O)O)c3)n2)c1` [I-103] reads > 1 µM; that for `COC(=O)c1cccc(Nc2nc(-c3cccc(C#N)c3)cs2)c1` [I-104], > 1 µM. Consider `NC(=O)c1cccc(-c2csc(Nc3cncc(C(F)(F)F)c3)n2)c1` [I-105], for which the EC50 was > 1 µM. On the same count and under the same terms, the result for `COC(=O)c1cccc(-c2csc(Nc3cccc(C(F)(F)F)c3)n2)c1` [I-106] reads 0.1 to 1 µM; that for `COC(=O)c1cc(-c2csc(Nc3cccc(C(F)(F)F)c3)n2)cc([N+](=O)[O-])c1` [I-108], 0.1 to 1 µM. Consider `C[N+](C)(C)CCCNC(=O)N(c1cccc(C(F)(F)F)c1)c1nc(-c2ccc[n+]([O-])c2)cs1` [I-110], for which the EC50 is > 1 µM. Regarding `O=C(O)c1cc(-c2csc(Nc3cccc(C(F)(F)F)c3)n2)c[n+]([O-])c1` [I-111], the EC50 is > 1 µM. As for `COC(=O)c1cc(C#N)cc(-c2csc(Nc3cccc(C(F)(F)F)c3)n2)c1` [I-113], the EC50 was > 1 µM. On the same count and under the same terms, the result for `N#Cc1cccc(-c2csc(Nc3cccc(C(=O)O)c3)n2)c1` [I-114] reads > 1 µM; that for `N#Cc1cc(-c2csc(Nc3cccc(C(F)(F)F)c3)n2)cc([N+](=O)[O-])c1` [I-115], > 1 µM; that for `O=C(O)c1cccc(Nc2nc(-c3ccc[n+]([O-])c3)cs2)c1` [I-116], > 1 µM. As to `C[N+](C)(C)CCNC(=O)N(c1cccc(C(F)(F)F)c1)c1nc(-c2ccc[n+]([O-])c2)cs1` [I-118], the EC50 fell in the range of 0.1 to 1 µM. Same read-out and setting: the result for `NC(=O)c1cccc(-c2csc(Nc3cccc(C(F)(F)F)n3)n2)c1` [I-119] reads < 0.01 µM. Still for that read-out and setting: the result for `[O-][n+]1cccc(-c2csc(Nc3cncc(C(F)(F)F)c3)n2)c1` [I-122] reads > 1 µM; that for `[O-][n+]1cccc(-c2cnc(Nc3cccc(C(F)(F)F)c3)o2)c1` [I-123], > 1 µM.

For the compound `N#Cc1cccc(-c2coc(Nc3cccc(C(F)(F)F)c3)n2)c1` [I-124], the EC50 is > 1 µM.

With `O=c1cc(-c2cnc(Nc3cccc(C(F)(F)F)c3)o2)cc[nH]1` [I-126], the EC50 is > 1 µM. The same measure, in the same setting: the result for `COC(=O)c1cc(-c2csc(Nc3cccc(C(F)(F)F)c3)n2)c[n+]([O-])c1` [I-127] reads 0.1 to 1 µM; that for `[O-][n+]1cccc(-c2csc(Nc3ccc(C(F)(F)F)cc3)n2)c1` [I-129], 0.1 to 1 µM; that for `[O-][n+]1cccc(-c2cc(Nc3cccc(C(F)(F)F)c3)no2)c1` [I-131], > 1 µM. With `CSc1cccc(-c2csc(Nc3cccc(C(F)(F)F)c3)n2)c1` [I-132], the EC50 is > 1 µM. On to `O=c1cc(-c2nc(Nc3cccc(C(F)(F)F)c3)no2)cc[nH]1` [I-133], for which the EC50 was 0.1 to 1 µM. Regarding `[O-][n+]1cccc(-c2nc(Nc3cccc(C(F)(F)F)c3)no2)c1` [I-134], the EC50 is > 1 µM.

Regarding `O=c1cc(-c2noc(Nc3cccc(C(F)(F)F)c3)n2)cc[nH]1` [I-135], the EC50 is > 1 µM. On the same count and under the same terms, the result for `O=c1cc(-c2cc(Nc3cccc(C(F)(F)F)c3)on2)cc[nH]1` [I-137] reads > 1 µM.

`N#Cc1cccc(-c2cc(Nc3cccc(C(F)(F)F)c3)on2)c1` [I-138]: the EC50 is > 1 µM. On the same count and under the same terms, the result for `O=c1cc(-c2cc(Nc3cccc(C(F)(F)F)c3)no2)cc[nH]1` [I-139] reads 0.1 to 1 µM. `[O-][n+]1cccc(-c2cc(Nc3cccc(C(F)(F)F)c3)on2)c1` [I-140]: the EC50 was > 1 µM.

As to `COc1cc(-c2csc(Nc3cccc(SC)c3)n2)ccn1` [I-141], the EC50 was > 1 µM. As for `CSc1cccc(Nc2nc(-c3cc[nH]c(=O)c3)cs2)c1` [I-142], the EC50 was > 1 µM.
